The numbers were not newly measured in patent US20080274189A1, “Organic Compounds Comprising a Glycopyrr Onium Salt” (priority 2005, published 2008), which cites them from elsewhere.

SMILES strings stand for the structures.

For this data set the following is noted: aerosol formulation, single administration of a metered dose, asthma.

For the compound `C[N+]1(C)CCC(OC(=O)C(O)(c2ccccc2)C2CCCC2)C1.[Br-]` (racemic) [glycopyrrolate, 3-[(cyclopentyl-hydroxyphenylacetyl)oxy]-1,1-dimethylpyrrolidinium bromide], the duration of bronchodilation result was “up to 12 hours”.
